Consider 4 compounds from patent US20230082311A1, “DRUG FOR CURATIVE THERAPY OF INTRACTABLE HEREDITARY RENAL ALPORT SYNDROME” (NATIONAL UNIVERSITY CORPORATION KUMAMOTO UNIVERSITY, priority 2019, published 2023).

*1 amine or outer side, *2 acyl side, *3 side chain or, on linkers, in order; H or OH if unused. Where a SMILES comes first, the peptide text is derived from it. [ ]: non-standard residue; d: D form. X1 = COCCN1CCN(C[C@H](C)[C@@H](C(=O)[*:2])N(C)[*:1])CC1; MeBmt = C/C=C/C[C@@H](C)[C@@H](O)[C@H](NC)C(=O)O; NMeL = CN[C@@H](CC(C)C)C(=O)O; NMeV = CN[C@H](C(=O)O)C(C)C; dNMeA = CN[C@H](C)C(=O)O; Abu = CC[C@H](N)C(=O)O

The subject of series [1] is α3WT/α4WT/α5G1241V collagen trimer (COL4a5/G1241V). Type of series: cell-based, Human.
In series [2] the test system is α3WT/α4WT/α5WT collagen trimer (COL4a5/WT). The series can be described thus: Type IV collagen α345 trimer assay by Nano luciferase, wild-type COL4A5 stable line. Type of series: cell-based, Human. As to conditions: wild-type stable cell line, FIG. 5 upper. Here is the method: HEK293T cells (Human Embryonic Kidney 293) were obtained from the RIKEN Cell Bank, and thereafter addition of virus concentration solution for COL4A4-3FLAG (Puro), COL4A3-SmBiT (Hyg), COL4A5-LgBiT (BSD) (Omachi K. et al., Cell Chemical Biology 2018, 25, 634-643) in this order, exchange of drug resistance containing medium, passage and preservation of surviving cells were repeated whereby a cell line stably expressing α345 (IV) trimer was generated. COL4A5 variant G1244D was prepared using pLVSIN EF1α BSD COL4A5-LgBiT as a template and using Quikchange (registered trade mark) II Site-directed Mutagenesis Kit (STRATAGENE (registered trade mark)). The primers used were follows. PCR reactions (95° C. for 1 min, one cycle; 95° C. for 50 sec, 60° C. for 50 sec, 68° C. for 90 sec/1 kb, 18 cycles; 68° C. for […]) were performed with each Primer. […]
A cell line stably expressing split nano luciferase-fused α345 required for the NanoLuc α345 trimer assay was seeded on LumiNuc 96 well white plate (Thermo). After 24 hr, the cells were cultured in phenol red-free DMEM complete medium containing 2-phosphate ascorbic acid (200 μM), substrates were added to the culture supernatant and cells according to the standard method of NanoGlo live cell assay (Promega) reagent, and luminescence was confirmed with luminometer GloMax Navigator (Promega). […]

Series [3] has as its system calcineurin. As to conditions: cited from earlier work.
The test system of series [4] is COL4A5 AS mutants (G227S, G594D, G624D, G869R, S916G, G1030S, G1107R, G1140V, G1220D, G1241C, G1241V, G1244D, P1517T, R1569Q) and Exon41-deleted variant. It is filed as cell-based, Human. The following applies: panel of 14 AS mutants, Exon41-deleted variant and wild type, FIG. 7.
The target of series [5] is T1, PPIF (cyclophilin D) (Homo sapiens, UniProt P30405).
T1 construct: endogenous in cells; host or cells: HEK293T stably expressing split-NanoLuc alpha345 (COL4A5-G1244D), with or without siRNA knock-down
T1 sequence (P30405 30-207): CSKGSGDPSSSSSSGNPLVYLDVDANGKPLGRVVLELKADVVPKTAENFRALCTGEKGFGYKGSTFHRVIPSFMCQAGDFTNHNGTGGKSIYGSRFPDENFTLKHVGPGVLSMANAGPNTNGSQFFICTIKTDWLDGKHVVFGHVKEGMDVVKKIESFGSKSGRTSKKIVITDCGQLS
The series can be described thus: Collagen trimer secretion promotion in G1244D HEK293T cells with cyclophilins knocked down with siRNA. It is filed as cell-based. As to conditions: siRNA 15 nM against 11 cyclophilins, CsA 1 μM, Alisporivir 2 μM, FIG. 8. The source says:
To elucidate the mechanism of collagen trimer secretion promotion by CsA and Alisporivir, cells in which cyclophilins to which CsA and Alisporivir can bind were knocked down with siRNA were produced, and the collagen trimer secretion promoting effect by CsA and Alisporivir in the cells was investigated comprehensively.
As the cells, G1244D mutation-introduced HEK293T cells—for which the effect of CsA and Alisporivir were confirmed in previous experiments—were used.
(§1) An cell line stably expressing split nano luciferase-fused α345 required for the NanoLuc α345 trimer assay was seeded on a 6 well plate (Corning) at 3×10^5 cells/well, and the siRNAs shown in Table 1 were introduced by lipofection at the time of subconfluence. The target genes are all cyclophilins, and the abbreviations in Table 1 indicate the following substances.
Lipofectamine RNAi Max was used for transfection of siRNA. The final siRNA concentration was adjusted to 15 nM, and transfection was performed according to the standard protocol. 24 hr after siRNA introduction, the cells were detached and reseeded on a LumiNuc 96 well white plate (Thermo) at 4×10^4 cells/well. […] Substrates were added 24 hr later to the culture supernatant and cells according to the standard method of NanoGlo live cell assay (Promega) reagent, and luminescence (index of trimer secretion) was measured by luminometer GloMax Navigator (Promega). […]

Series [6] deals with α345 (COL4A5-G1244D) collagen trimer. Put plainly: Type IV collagen α345 trimer assay by Nano luciferase, COL4A5-G1244D stable line. It is filed as cell-based, Human. As to conditions: for secretion level of collagen trimer as a function of concentration: COL4A5 (G1244D), concentration series up to 10 μM, FIG. 1-3; for collagen trimer secretion (luminescence of culture supernatant, ratio to DMSO-treated group): HEK293T line stably expressing α345 (COL4A5-G1244D), 24 hr treatment. Here is the method: HEK293T cells (Human Embryonic Kidney 293) were obtained from the RIKEN Cell Bank, and thereafter addition of virus concentration solution for COL4A4-3FLAG (Puro), COL4A3-SmBiT (Hyg), COL4A5-LgBiT (BSD) (Omachi K. et al., Cell Chemical Biology 2018, 25, 634-643) in this order, exchange of drug resistance containing medium, passage and preservation of surviving cells were repeated whereby a cell line stably expressing α345 (IV) trimer was generated. COL4A5 variant G1244D was prepared using pLVSIN EF1α BSD COL4A5-LgBiT as a template and using Quikchange (registered trade mark) II Site-directed Mutagenesis Kit (STRATAGENE (registered trade mark)). The primers used were follows. PCR reactions (95° C. for 1 min, one cycle; 95° C. for 50 sec, 60° C. for 50 sec, 68° C. for 90 sec/1 kb, 18 cycles; 68° C. for […]) were performed with each Primer. The base sequence of DNA was confirmed by the cycle sequence method (Sigma-Aldrich JAPAN).
A cell line stably expressing split nano luciferase-fused α345 required for the NanoLuc α345 trimer assay was seeded on LumiNuc 96 well white plate (Thermo). After 24 hr, the cells were cultured in phenol red-free DMEM complete medium containing 2-phosphate ascorbic acid (200 μM), substrates were added to the culture supernatant and cells according to the standard method of NanoGlo live cell assay (Promega) reagent, and luminescence was confirmed with luminometer GloMax Navigator (Promega).
The cell line stably expressing α345 (COL4A5-G1244D) was detached and seeded on LumiNuc 96 well white plate (Thermo) at a density of 2×10^4 cells/well. 24 hr after seeding, the medium was exchanged with a phenol red-free DMEM complete medium containing 2-phosphate ascorbic acid (200 μM) and each concentration of cyclosporin A (CsA) (0.1, 0.5, 1, 2, 5, 10 μM), or each concentration of PSC-833 (0.5, 1, 2, 5, 10 μM), or each concentration of Alisporivir (0.1, 0.5, 5, 10 μM) and the cells were cultured. A substrate was added 24 hr later to the culture supernatant according to the standard method of NanoGlo live cell assay (Promega) reagent, and luminescence (index of trimer secretion) was measured by luminometer GloMax Navigator (Promega). The control solvent (CON) used was dimethyl sulfoxide (DMSO).

For series [7] the following is noted: clinical trials (Zeuzem 2015; Buti 2015); cited from earlier work.
Series [8] has as its target T1, PPIF (cyclophilin D). The series can be described thus: Collagen trimer secreting ability of G1244D HEK293T cells after knock-down of cyclophilins with siRNA. Type of series: cell-based. As to conditions: G1244D mutant-transfected HEK293T cells, FIG. 9. Here is the method: as §1
Lipofectamine RNAi Max was used for transfection of siRNA. The final siRNA concentration was adjusted to 15 nM, and transfection was performed according to the standard protocol. 24 hr after siRNA introduction, the cells were detached and reseeded on a LumiNuc 96 well white plate (Thermo) at 4×10^4 cells/well. 24 hr thereafter, the medium was exchanged with a phenol red-free DMEM complete medium containing 2-phosphate ascorbic acid (200 μM) and Cyclosporin A (CsA) (1 μM), or Alisporivir (2 μM) and the cells were cultured. Substrates were added 24 hr later to the culture supernatant and cells according to the standard method of NanoGlo live cell assay (Promega) reagent, and luminescence (index of trimer secretion) was measured by luminometer GloMax Navigator (Promega). The control solvent (CON) used was DMSO. […]

Turning to `C/C=C/C[C@@H](C)[C@@H](O)[C@H]1C(=O)N[C@@H](CC)C(=O)N(C)[C@H](C)C(=O)N(CC)[C@@H](C(C)C)C(=O)N[C@@H](C(C)C)C(=O)N(C)[C@@H](CC(C)C)C(=O)N[C@@H](C)C(=O)N[C@H](C)C(=O)N(C)[C@@H](CC(C)C)C(=O)N(C)[C@@H](CC(C)C)C(=O)N(C)[C@@H](C(C)C)C(=O)N1C` [Alisporivir], the “extracellular secretion of collagen trimers, COL4a5/G1241V” value in series [1] (G1241V stable cell line, FIG. 5 lower) is reported as “promoted extracellular secretion of collagen trimers”. The “secretion of trimers of COL4a5/WT-containing collagen” value in series [2] is given as “did not show an influence on COL4a5/WT”. The calcineurin inhibition entry in series [3] is reported as “does not inhibit calcineurin”. The “collagen trimer secretion in COL4A5 variants” value in series [4] is “exhibited a significant effect in G1030S, G1107R, G1220D, G1241C, G1241V, G1244D, and Exon41-deleted variants”. For the same compound, in series [5], the “effect of promoting the secretion of collagen trimers in cyclophilin knock-down cells” value is on record as “decreased only in the cells knocked down with PPIF (cyclophilin D)”. Further, in series [6], the “secretion level of collagen trimer as a function of concentration” value is on record as “increases depending on the concentration of Alisporivir” and the “collagen trimer secretion (luminescence of culture supernatant, ratio to DMSO-treated group)” value is on record as “showed an action of promoting collagen trimer secretion”. For the same compound, the “action of promoting collagen trimer secretion compared with CsA” value in series [6] (COL4A5-G1244D, concentrations of 5 μM and 10 μM, FIG. 4) was “stronger action of promoting collagen trimer secretion than CsA”. For the same compound, the “nephrotoxicity in clinical trials” value in series [7] is “no nephrotoxicity”.

Take `C/C=C/C[C@@H](C)[C@@H](O)[C@H]1C(=O)N[C@@H](CC)C(=O)N(C)[C@H](C)C(=O)N(C)[C@@H]([C@@H](C)CN2CCN(CCOC)CC2)C(=O)N[C@@H](C(C)C)C(=O)N(C)[C@@H](CC(C)C)C(=O)N[C@@H](C)C(=O)N[C@H](C)C(=O)N(C)[C@@H](CC(C)C)C(=O)N(C)[C@@H](CC(C)C)C(=O)N(C)[C@@H](C(C)C)C(=O)N1C` [NIM258] (cyclo(A[dA][NMeL][NMeL][NMeV][MeBmt][Abu][dNMeA][X1]V[NMeL])): the “extracellular secretion of collagen trimer compared with DMSO-administered group” value in series [1] (5 μM or 10 μM, G1241V cell line per FIG. 6) was “extracellular secretion of collagen trimers was promoted”. Also, the calcineurin inhibition result in series [3] is recorded as “does not inhibit calcineurin”.

As to `C/C=C/C[C@@H](C)C(=O)[C@H]1C(=O)N[C@@H](C(C)C)C(=O)N(C)CC(=O)N(C)[C@@H](CC(C)C)C(=O)N[C@@H](C(C)C)C(=O)N(C)[C@@H](CC(C)C)C(=O)N[C@@H](C)C(=O)N[C@H](C)C(=O)N(C)[C@@H](CC(C)C)C(=O)N(C)[C@@H](CC(C)C)C(=O)N(C)[C@@H](C(C)C)C(=O)N1C` [PSC-833], the calcineurin inhibition result in series [3] is listed as “does not inhibit calcineurin”. Besides, in series [6], the “secretion level of collagen trimer as a function of concentration” value is “does not increase even when the amount of PSC-833 is increased to 10 μM” and the “collagen trimer secretion (luminescence of culture supernatant, ratio to DMSO-treated group)” value is listed as “did not affect collagen trimer secretion”. Also, the “intracellular expression level of collagen trimer” value in series [6] (COL4A5-G1244D line, PSC-833 0.5-10 μM) is “did not affect”.

For “siPPIF: siRNA against human PPIF (cyclophilin D), sense GGCAGAUGUCGUCCCAAAG, antisense CUUUGGGACGACAUCUGCC (SEQ ID NO: 27/28) (listed as RNA, chemistry not given here)”, the “secretion level of collagen trimer, ratio to siGL2-treated group” value in series [8] is reported as “promotion of collagen trimer secretion was confirmed”.
